Results on 44 molecules are retold here after patent US12528790B2, “Amide derivative having antiviral activity” (Shionogi & Co., Ltd., priority 2020, dated 2026).

This assay relates to RSV A2 strain. As to the kind of experiment: In vitro CPE (CytoPathic Effect) inhibition effect evaluation test, RSV type A. The format is cell-based. On the procedure: The test sample is diluted in advance to an appropriate concentration with DMSO, and 3-fold series of serial dilutions were prepared on a 384-well plate (0.32 μL/well). HEp-2 cells (CCL-23; ATCC) adjusted at appropriate number (2.4×10^5 cells/mL) in 2% FBS E-MEM (prepared by adding kanamycin and FBS to Eagle's Minimum Essential Medium; Invitrogen) were added at 12.5 μL/well to the 384-well plate previously aliquoted with the test samples. The RSV A2 strain was diluted to an appropriate concentration in a culture medium and added to the 384-well plate containing the test sample at 12.5 μL/well. The culture medium was added additionally to the 384-well plate, and the test was started with 50 μL/well. Control wells were prepared with only virus-free culture medium. The plate was incubated in a 5% CO2 incubator at 37° C. for 4 days, and the plate was then placed at room temperature for 30 minutes. CellTiter-Glo (registered trademark) 2.0 assay (Promega) was added at 15 μL/well, mixed for 30 seconds, and the plate was placed for approximately 1 hour. The luminescent signal was then measured by EnVision (PerkinElmer). The inhibitory effect of the test agents on RSV-induced CPE was calculated as 0% and 100% inhibition rate for each sample concentration based on the level of remaining viable cells by CellTiter-Glo (registered trademark) 2.0, with the EC50 value for each compound calculated by nonlinear regression as the concentration that inhibits RSV-induced CPE by 50%. In the case of evaluation against RSV type B, RSV B (Wash/18537 strain) was infected in the same manner as the type A, cultured for 5 days, and quantitated in the same manner as for the A2 strain.

Setting [1] is: human respiratory syncytial virus, inhibitory effect against RSV type A (RSV A2 strain), HEp-2 cells, CPE inhibition, read-out: EC50.
Where [2] appears, read: inhibitory effect against RSV type A (RSV A2 strain), HEp-2 cells, CPE inhibition, read-out: EC50.

Read-outs that look alike come from different tables or passages of the source. Some results are limits rather than exact numbers.

One may read the EC50 as the midpoint of the concentration-response curve. Take `O=C(NC1(C(=O)O)C2CC3CC(C2)CC1C3)c1cnc(N2CC3(CCCC3)c3cc(OC4CCN(c5ncccn5)CC4)ccc32)nc1C(F)(F)F` (centres unmarked) [Compound I-244]: the concentration giving a half-maximal response (EC50) under setting [1] is under 0.01 µM.
The same measure, in the same setting: the value for `COc1ccc2c(c1)c(-c1ncc(C(=O)NC3(C(=O)O)C4CC5CC(C4)CC3C5)c(C(F)(F)F)n1)cn2C1CCC(F)(F)CC1` (centres unmarked) [Compound I-454] was 0.01 to 0.1 µM.
Take `COc1cc(COc2ccc3c(c2)CCN3c2ncc(C(=O)NC3(C(=O)O)CCCCC3)c(C(F)(F)F)n2)cc(OC)c1` [Compound I-29]: the EC50 under setting [1] is under 0.01 µM.
Same read-out and setting: the figure for `O=C(NC1(C(=O)O)C2CC3CC(C2)CC1C3)c1ccc(-c2cn(C3CCOCC3)c3cc(OC4CCN(c5ncccn5)CC4)c(F)cc23)nc1C(F)(F)F` (centres unmarked) [Compound I-222] is under 0.01 µM.
Still for that read-out and setting: the value for `Cn1cc(-c2ncc(C(=O)NC3(C(=O)O)C4CC5CC(C4)CC3C5)c(C(F)(F)F)n2)c2ccc(OCCC3CCOCC3)cc21` (centres unmarked) [Compound I-116] was under 0.01 µM.
Still for that read-out and setting: the figure for `COc1cccc(COc2ccc3c(c2)CCN3c2ncc(C(=O)NC3(C(=O)O)CC4CCC3C4)c(C(F)(F)F)n2)c1` (centres unmarked) [Compound I-13] is under 0.01 µM.
As to `Cc1cccnc1-n1cc(-c2ccc(C(=O)NC3(C(=O)O)C4CC5CC(C4)CC3C5)c(C(F)(F)F)n2)c2ccc(OC3CCN(c4ncccn4)CC3)cc21` (centres unmarked) [Compound I-311], under setting [2], the EC50 is under 0.01 µM.
With `COc1ccc2c(n1)C1(CCOCC1)CN2c1ncc(C(=O)NC2(C(=O)O)CCCCC2)c(C(F)(F)F)n1` [Compound I-90], the EC50 under setting [1] is 0.1 to 5 µM.
On the same count and under the same terms, the figure for `O=C(NC1(C(=O)O)C2CC3CC(C2)CC1C3)c1cnc(-c2cn(C3CCC(F)(F)CC3)c3cc(OCc4ccc5c(c4)OCC5)ccc23)nc1C(F)(F)F` (centres unmarked) [Compound I-278] is under 0.01 µM.
On the same count and under the same terms, the value for `O=C(NC1(C(=O)O)CCCCC1)c1cnc(N2CC3(CC3)c3cc(OCCC4CCOCC4)ccc32)nc1C(F)(F)F` [Compound I-44] was 0.01 to 0.1 µM.
Same read-out and setting: the value for `O=C(NC1(C(=O)O)CCCCC1)c1cnc(N2CCc3cc(OC4CCN(c5ccncc5)CC4)ccc32)nc1C(F)(F)F` [Compound I-84] was 0.01 to 0.1 µM.
In the case of `Cn1ccc(-n2cc(-c3ccc(C(=O)NC4(C(=O)O)C5CC6CC(C5)CC4C6)c(C(F)(F)F)n3)c3ccc(OC4CCN(c5ncccn5)CC4)cc32)c1` (centres unmarked) [Compound I-334], the EC50 under setting [2] is under 0.01 µM.
With `O=C(NC1(C(=O)O)C2CC3CC(C2)CC1C3)c1cnc(-c2cn(CCc3ccccc3)c3cc(OC4CCN(c5ncc(F)cn5)CC4)ccc23)nc1C(F)(F)F` (centres unmarked) [Compound I-469], the EC50 under setting [1] is under 0.01 µM.
On the same count and under the same terms, the value for `CC1CN(c2ncccn2)CCC1Oc1ccc2c(-c3ncc(C(=O)NC4(C(=O)O)C5CC6CC(C5)CC4C6)c(C(F)(F)F)n3)cn(C3CCC(F)(F)CC3)c2c1` (single isomer, unassigned) [Compound I-391] was under 0.01 µM; that for `O=C(NC1(C(=O)O)C2CC3CC(C2)CC1C3)c1ccc(-c2cn(C(=O)OC3CCCCC3)c3cc(OC4CCN(c5ncccn5)CC4)ccc23)nc1C(F)(F)F` (centres unmarked) [Compound I-150] was under 0.01 µM; that for `O=C(NC1(C(=O)O)C2CC3CC(C2)CC1C3)c1cnc(-c2cn(C3CCC(F)(F)CC3)c3cc(O[C@@H]4CCN(C5COC5)C4)ccc23)nc1C(F)(F)F` (some centres unmarked) [Compound I-246] was under 0.01 µM.
As for `Cc1cnccc1-n1cc(-c2ccc(C(=O)NC3(C(=O)O)C4CC5CC(C4)CC3C5)c(C(F)(F)F)n2)c2ccc(OC3CCN(c4ncccn4)CC3)cc21` (centres unmarked) [Compound I-317], the EC50 under setting [2] is under 0.01 µM.
On to `O=C(NC1(C(=O)O)CCC(F)(F)CC1)c1cnc(N2CCc3cc(OCCC4CCOCC4)ccc32)nc1C(F)(F)F` [Compound I-20], for which the EC50 under setting [1] was 0.01 to 0.1 µM.
Same read-out and setting: the figure for `CC(C)(C)OC(=O)N1CCC(NC(=O)c2cnc(N3CC4(CCOCC4)c4cc(OC5CCN(c6ncccn6)CC5)ccc43)nc2C(F)(F)F)(C(=O)O)CC1` [Compound I-140] is 0.01 to 0.1 µM; for `O=C(NC1(C(=O)O)CCNCC1)c1cnc(N2CC3(CCOCC3)c3cc(OC4CCN(c5ncccn5)CC4)ccc32)nc1C(F)(F)F` [Compound I-144] it is 0.1 to 5 µM.
Same read-out and setting: the figure for `O=C(NC1(C(=O)O)C2CC3CC(C2)CC1C3)c1cnc(-c2cn(C3CCC(F)(F)CC3)c3cc(OC4CCN(CC5(F)CC5)CC4)ccc23)nc1C(F)(F)F` (centres unmarked) [Compound I-425] is under 0.01 µM; for `NC(=O)C1CC1c1ccc2c(c1)CCN2c1ncc(C(=O)NC2(C(=O)O)C3CC4CC(C3)CC2C4)c(C(F)(F)F)n1` (racemic) [Compound I-215] it is 0.01 to 0.1 µM; for `O=C(NC1(C(=O)O)C2CC3CC(C2)CC1C3)c1cnc(-c2cn(C3CCC(F)(F)CC3)c3cc(OC4CCN(c5ncc(F)s5)CC4)ccc23)nc1C(F)(F)F` (centres unmarked) [Compound I-420] it is under 0.01 µM.
The same measure, in the same setting: the value for `COc1ccc2c(c1)C1(CCOCC1)CN2c1nc(CCCO)c(C(=O)NC2(C(=O)O)C3CC4CC(C3)CC2C4)c(C(F)(F)F)n1` (centres unmarked) [Compound I-187] was 0.01 to 0.1 µM.
In the case of `O=C(NC1(C(=O)O)C2CC3CC(C2)CC1C3)c1cnc(-c2cn(C3CCC(F)(F)C3)c3cc(OC4CCN(c5ncc(F)cn5)CC4)ccc23)nc1C(F)(F)F` (racemic) [Compound I-470], the EC50 under setting [1] is under 0.01 µM.
On the same count and under the same terms, the value for `O=C(NC1(C(=O)O)CCCCC1)c1cnc(N2CCc3cc(C4=CCCN(c5ncccn5)C4)ccc32)nc1C(F)(F)F` [Compound I-71] was under 0.01 µM; that for `O=C(NC1(C(=O)O)C2CC3CC(C2)CC1C3)c1cnc(N2CC3(CCOCC3)c3cc(O[C@H]4CC[C@@H](n5cccn5)CC4)ccc32)nc1C(F)(F)F` (some centres unmarked) [Compound I-192] was under 0.01 µM; that for `O=C(NC1(C(=O)O)C2CC3CC(C2)CC1C3)c1cnc(-c2cn(C3CCC(F)(F)CC3)c3cc(OC4CCN(c5ncc(F)cc5F)CC4)ccc23)nc1C(F)(F)F` (centres unmarked) [Compound I-432] was under 0.01 µM.
For `O=C(NC1(C(=O)O)C2CC3CC(C2)CC1C3)c1ccc(-c2cn(-c3ccncc3C(F)(F)F)c3cc(OC4CCN(c5ncccn5)CC4)ccc23)nc1C(F)(F)F` (centres unmarked) [Compound I-329], under setting [2], the 50% effective concentration (EC50) is under 0.01 µM.
Where the note is “human respiratory syncytial virus, HEp-2”, `Cc1ccc2c(c1)C1(CCN(CC(F)(F)F)CC1)CN2c1ncc(C(=O)NC2(C(=O)O)C3CC4CC(C3)CC2C4)c(C(F)(F)F)n1` (centres unmarked) [Compound I-136] gave an EC50 of under 0.01 µM.
Regarding `COc1cccc(COc2ccc3c(c2)CCN3c2ncc(C(=O)NC3(C(=O)O)CC4CCC3C4)c(C(F)(F)F)n2)c1` (single isomer, unassigned) [Compound I-19], the 50% effective concentration (EC50) under setting [2] was under 0.01 µM.
For `O=C(NC1(C(=O)O)C2CC3CC(C2)CC1C3)c1cnc(-c2cn(C3CCC(F)(F)CC3)c3cc(OC4CCC(F)(F)CC4)ccc23)nc1C(F)(F)F` (centres unmarked) [Compound I-419], the concentration giving a half-maximal response (EC50) under setting [1] was under 0.01 µM.
On the same count and under the same terms, the figure for `O=C(NC1(C(=O)O)C2CC3CC(C2)CC1C3)c1cnc(-c2cn(C3CCC(F)(F)CC3)c3ccc(OC4CCN(C5COC5)CC4)cc23)nc1C(F)(F)F` (centres unmarked) [Compound I-225] is 0.01 to 0.1 µM.
Still for that read-out and setting: the figure for `O=C(NC1(C(=O)O)C2CC3CC(C2)CC1C3)c1cnc(N2CC3(CCOCC3)c3cc(F)ccc32)nc1C(F)(F)F` (centres unmarked) [Compound I-284] is under 0.01 µM.
Still for that read-out and setting: the figure for `CC1CN(CC(F)(F)F)CCC1Oc1ccc2c(-c3ncc(C(=O)NC4(C(=O)O)C5CC6CC(C5)CC4C6)c(C(F)(F)F)n3)cn(C3CCC(F)(F)CC3)c2c1` (centres unmarked) [Compound I-403] is under 0.01 µM.
On to `Cn1cc2c(n1)CCN(Cc1ccc3c(c1)C1(CCOCC1)CN3c1ncc(C(=O)NC3(C(=O)O)C4CC5CC(C4)CC3C5)c(C(F)(F)F)n1)C2` (centres unmarked) [Compound I-351], for which the EC50 under setting [2] was in the range of 0.01 to 0.1 µM.
As to `O=C(NC1(C(=O)O)C2CC3CC(C2)CC1C3)c1cnc(N2CC3(CCOCC3)c3cc(OC4CCN(c5ncccn5)CC4)cc(F)c32)nc1C(F)(F)F` (centres unmarked) [Compound I-332], the 50% effective concentration (EC50) under setting [2] was under 0.01 µM.
Take `CC1CN(c2ncc(F)cn2)CCC1Oc1ccc2c(-c3ncc(C(=O)NC4(C(=O)O)C5CC6CC(C5)CC4C6)c(C(F)(F)F)n3)cn(C3CCC(F)(F)CC3)c2c1` (centres unmarked) [Compound I-376]: the concentration for a half-maximal effect (EC50) under setting [1] is under 0.01 µM.
Turning to `CC1CN(c2ncccn2)CCC1Oc1ccc2c(-c3ncc(C(=O)NC4(C(=O)O)C5CC6CC(C5)CC4C6)c(C(F)(F)F)n3)cn(C3CCC(F)(F)CC3)c2c1` (single isomer, unassigned) [Compound I-404], under setting [2], the 50% effective concentration (EC50) was under 0.01 µM.
In the case of `O=C(NC1(C(=O)O)C2CC3CC(C2)CC1C3)c1cnc(N2CC3(C=CCC3)c3cc(OC4CCN(c5ncccn5)CC4)ccc32)nc1C(F)(F)F` (racemic) [Compound I-243], the EC50 under setting [1] is under 0.01 µM.
For `O=C(NC1(C(=O)O)C2CC3CC(C2)CC1C3)c1ccc(N2CC3(CCOCC3)c3cc(OCCC4CCOCC4)ccc32)nc1C(F)(F)F` (centres unmarked) [Compound I-101], under setting [2], the concentration giving a half-maximal response (EC50) is under 0.01 µM.
In the case of `O=C(NC1(C(=O)O)C2CC3CC(C2)CC1C3)c1cnc(N2CC3(CCCCC3)c3cc(OC4CCN(c5ncc(F)cn5)CC4)ccc32)nc1C(F)(F)F` (centres unmarked) [Compound I-383], the EC50 under setting [1] is under 0.01 µM.
As for `CC1CN(c2ncccn2)CCC1Oc1ccc2c(-c3ncc(C(=O)NC4(C(=O)O)C5CC6CC(C5)CC4C6)c(C(F)(F)F)n3)cn(C3CCC(F)(F)CC3)c2c1` (single isomer, unassigned) [Compound I-405], the 50% effective concentration (EC50) under setting [2] is under 0.01 µM.
As to `CC(=O)N1CCC(Oc2ccc3c(c2)CCN3c2ncc(C(=O)NC3(C(=O)O)CCCCC3)c(C(F)(F)F)n2)CC1` [Compound I-64], the half-maximal effective concentration (EC50) under setting [1] was in the range of 0.1 to 5 µM.
